Key:
[1] = system: histamine-induced vascular permeability in guinea pig conjunctiva; assay: histamine-induced vascular permeability in guinea pig conjunctiva, topical ocular pretreatment; assay type: in vivo, guinea pig (Male Dunkin Hartley)
Description: The topical ocular antihistaminic effect of emedastine difumarate was assessed in a model of histamine induced vascular permeability in guinea pig conjunctiva. The potency of emedastine difumarate in this model was then compared with those of reference antihistamines.
Male Dunkin Hartley Viral Antibody Free outbred guinea pigs (Charles River Labs, Portage, Mich.), weighing approximately 250-350 grams (6/group) were injected intravenously (i.v.) via the marginal ear vein with 1.0 mL of Evans Blue dye (1.0 mg/mL). Forty-five (45) minutes post dye injection, 20 μL of test compound or saline vehicle was applied topically to one eye of each experimental animal. […] Responses were quantitated as described by Yanni et al. in Int. Arch. Allergy Immunol., 101:102-106 (1993). Response scores from the treated groups were then compared with scores obtained in the saline-treated group using Dunnett's t test (Dunnett C. W., "A multiple comparison procedure for comparing treatments with a control." J. Am. Stat. Assoc. 50:1096-1121(1955)). Regression analysis was used to determine relative potency (Bliss, C. and E. Gjorgy. In Vitamin Methods, Vol. 2, pp. 445-610, Academic Press, Inc., New York, 1951.).

[2] = system: allergic conjunctivitis; settings: without the addition of a vasoconstrictor; cited from earlier work
[3] = as compared to systemic activity; cited from earlier work
[4] = 1 min pretreatment, relative to emedastine difumarate = 1.0, (95% Confidence Limits)
[5] = 30 min pretreatment, relative to emedastine difumarate = 1.0, (95% Confidence limits)
[6] = 1 min pretreatment, 0.001 wt %, ketotifen/pheniramine experiment (NaCl 276 ± 10)
[7] = 1 min pretreatment, 0.01 wt %, ketotifen/pheniramine experiment (NaCl 276 ± 10)
[8] = 1 min pretreatment, 0.1 wt %, ketotifen/pheniramine experiment (NaCl 276 ± 10)

## c1ccc(CN(CC2=NCCN2)c2ccccc2)cc1 [Antazoline, reference compound]
[1]; 1 min pretreatment, 0.0001 wt %, antazoline experiment (NaCl 285 ± 19)
  Wheal Area × Intensity: 244 ± 14
[1]; 1 min pretreatment, 0.001 wt %, antazoline experiment (NaCl 285 ± 19)
  Wheal Area × Intensity: 178 ± 42
[1]; 1 min pretreatment, 0.01 wt %, antazoline experiment (NaCl 285 ± 19)
  Wheal Area × Intensity: 115 ± 6
[1]; [4]
  Potency: 0.060
[1]; 30 min pretreatment, 0.01 wt %, antazoline experiment (NaCl 287 ± 20)
  Wheal Area × Intensity (x ± S.D.): 205 ± 61
[1]; 30 min pretreatment, 0.1 wt %, antazoline experiment (NaCl 287 ± 20)
  Wheal Area × Intensity (x ± S.D.): 145 ± 26
[1]; 30 min pretreatment, 1.0 wt %, antazoline experiment (NaCl 287 ± 20)
  Wheal Area × Intensity (x ± S.D.): 91 ± 27
[1]; [5]
  Potency: ~0.00017

## CN(C)CCC(c1ccc(Br)cc1)c1ccccn1 (stereo not shown) [Brompheniramine, reference compound]
[1]; 30 min pretreatment, 0.0001 wt %, brompheniramine experiment (NaCl 219 ± 20)
  Wheal Area × Intensity (X ± S.D.): 167 ± 26
[1]; 30 min pretreatment, 0.001 wt %, brompheniramine experiment (NaCl 219 ± 20)
  Wheal Area × Intensity (X ± S.D.): 92 ± 44
[1]; 30 min pretreatment, 0.01 wt %, brompheniramine experiment (NaCl 219 ± 20)
  Wheal Area × Intensity (x ± S.D.): 5 ± 8
[1]; [5]
  Potency: 0.14 (0.078-0.263)

## CN(C)CCC(c1ccc(Cl)cc1)c1ccccn1 (stereo not shown) [Chlorpheniramine, reference compound]
[1]; 30 min pretreatment, 0.0001 wt %, chlorpheniramine experiment (NaCl 217 ± 35)
  Wheal Area × Intensity (X ± S.D.): 161 ± 57
[1]; 30 min pretreatment, 0.001 wt %, chlorpheniramine experiment (NaCl 217 ± 35)
  Wheal Area × Intensity (X ± S.D.): 76 ± 22
[1]; 30 min pretreatment, 0.01 wt %, chlorpheniramine experiment (NaCl 217 ± 35)
  Wheal Area × Intensity (x ± S.D.): 9 ± 12
[1]; [5]
  Potency: 0.13 (0.056-0.295)

## CN1CCC[C@@H]1CCO[C@](C)(c1ccccc1)c1ccc(Cl)cc1 [Clemastine, reference compound]
[1]; 30 min pretreatment, 0.00001 wt %, clemastine experiment (NaCl 350 ± 31)
  Wheal Area × Intensity (X ± S.D.): 283 ± 37
[1]; 30 min pretreatment, 0.0001 wt %, clemastine experiment (NaCl 350 ± 31)
  Wheal Area × Intensity (X ± S.D.): 131 ± 36
[1]; 30 min pretreatment, 0.001 wt %, clemastine experiment (NaCl 350 ± 31)
  Wheal Area × Intensity (X ± S.D.): 65 ± 28
[1]; 30 min pretreatment, 0.01 wt %, clemastine experiment (NaCl 350 ± 31)
  Wheal Area × Intensity (x ± S.D.): 18 ± 8

## CN1CCC(=C2c3ccccc3CC(=O)c3sccc32)CC1 [Ketotifen, reference compound]
[1]; 1 min pretreatment, 0.0001 wt %, ketotifen/pheniramine experiment (NaCl 276 ± 10)
  Wheal Area × Intensity: 210 ± 11
[1]; [6]
  Wheal Area × Intensity: 138 ± 21
[1]; [7]
  Wheal Area × Intensity: 89 ± 22
[1]; [8]
  Wheal Area × Intensity: 33 ± 22
[1]; [4]
  Potency: 0.288
[1]; 30 min pretreatment, 0.0000007 wt %, ketotifen experiment (NaCl 214 ± 41)
  Wheal Area × Intensity (x ± S.D.): 157 ± 66
[1]; 30 min pretreatment, 0.000007 wt %, ketotifen experiment (NaCl 214 ± 41)
  Wheal Area × Intensity (x ± S.D.): 108 ± 52
[1]; 30 min pretreatment, 0.00007 wt %, ketotifen experiment (NaCl 214 ± 41)
  Wheal Area × Intensity (x ± S.D.): 61 ± 26
[1]; topical, 0.5 h
  Potency: 3.72 (0.973-11.892)

## C[C@@H]1CN([C@H]2CC[C@](C#N)(c3ccc(F)cc3)CC2)CC[C@]1(C(=O)O)c1ccccc1 [Levocabastine, reference compound]
[1]; 0.05%, topically 1 minute before histamine injection
  attenuation of histamine-induced vascular permeability response: failed to attenuate significantly
[1]; 1 min pretreatment, 0.05 wt %, levocabastine experiment (NaCl 336 ± 78)
  Wheal Area × Intensity: 231 ± 58
[1]; 30 min pretreatment, 0.0005 wt %, levocabastine/pheniramine experiment (NaCl 252 ± 30)
  Wheal Area × Intensity (x ± S.D.): 189 ± 66
[1]; 30 min pretreatment, 0.005 wt %, levocabastine/pheniramine experiment (NaCl 252 ± 30)
  Wheal Area × Intensity (x ± S.D.): 116 ± 67
[1]; 30 min pretreatment, 0.05 wt %, levocabastine/pheniramine experiment (NaCl 252 ± 30)
  Wheal Area × Intensity (x ± S.D.): 56 ± 41
[1]; [5]
  Potency: 0.01 (0.006-0.038)
[2]
  clinical activity in patients with allergic conjunctivitis: exhibits clinical activity

## CN(C)CCC(c1ccccc1)c1ccccn1 (stereo not shown) [Pheniramine, reference compound]
[1]; [6]
  Wheal Area × Intensity: 181 ± 16
[1]; [7]
  Wheal Area × Intensity: 87 ± 40
[1]; [8]
  Wheal Area × Intensity: 59 ± 23
[1]; [4]
  Potency: 0.130
[1]; 30 min pretreatment, 0.003 wt %, levocabastine/pheniramine experiment (NaCl 252 ± 30)
  Wheal Area × Intensity (x ± S.D.): 175 ± 53
[1]; 30 min pretreatment, 0.03 wt %, levocabastine/pheniramine experiment (NaCl 252 ± 30)
  Wheal Area × Intensity (x ± S.D.): 122 ± 33
[1]; [5]
  Potency: ~0.0028

## COc1ccc(CCN2CCC(Nc3nc4ccccc4n3Cc3ccc(F)cc3)CC2)cc1 [astemizole]
[3]
  local ocular activity: greatly reduced local ocular activity

## CCOC(=O)N1CCC(=C2c3ccc(Cl)cc3CCc3cccnc32)CC1 [loratadine]
[3]
  local ocular activity: greatly reduced local ocular activity

## CC(C)(C)c1ccc(C(O)CCCN2CCC(C(O)(c3ccccc3)c3ccccc3)CC2)cc1 (stereo not shown) [terfenadine]
[3]
  local ocular activity: little or no local ocular activity

Source: US5668133A, “Ophthalmic compositions comprising emedastine and methods for their use” (priority 1995, dated 1997)
